According to ChEMBL document CHEMBL3763124, “N-Benzylbenzamides: A Novel Merged Scaffold for Orally Available Dual Soluble Epoxide Hydrolase/Peroxisome Proliferator-Activated Receptor γ Modulators” (J Med Chem, 2016):
≈ marks a conversion by molar mass, not a printed value. Calls of active or inactive are those of the source. The calls are words filed in the database; no cut-off is given here.

Legend:
[1] = target: T1, Peroxisome proliferator-activated receptor alpha (Homo sapiens, UniProt Q07869)
T1 sequence (Q07869 whole entry): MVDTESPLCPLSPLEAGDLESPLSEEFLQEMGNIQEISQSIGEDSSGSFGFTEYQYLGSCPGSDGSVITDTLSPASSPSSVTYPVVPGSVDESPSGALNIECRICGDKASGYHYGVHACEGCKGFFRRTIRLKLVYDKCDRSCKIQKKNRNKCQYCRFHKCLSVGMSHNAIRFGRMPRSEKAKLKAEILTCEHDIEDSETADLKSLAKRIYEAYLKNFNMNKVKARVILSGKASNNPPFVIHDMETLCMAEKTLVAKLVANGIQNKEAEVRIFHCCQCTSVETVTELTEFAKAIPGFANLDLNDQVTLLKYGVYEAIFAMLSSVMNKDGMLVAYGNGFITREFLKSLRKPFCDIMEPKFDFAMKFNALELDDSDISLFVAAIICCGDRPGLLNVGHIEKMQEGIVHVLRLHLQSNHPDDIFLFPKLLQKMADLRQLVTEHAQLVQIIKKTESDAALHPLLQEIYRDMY
Description: (§1) Transactivation of human PPARalpha expressed in African green monkey COS7 cells incubated overnight by dual-glo luciferase reporter gene assay

[2] = target: T2, Peroxisome proliferator-activated receptor delta (Homo sapiens, UniProt Q03181); test: Transactivation of human PPARdelta expressed in African green monkey COS7 cells incubated overnight by dual-glo luciferase reporter gene assay; format: cell-based; details: cos-7
T2 sequence (Q03181 whole entry): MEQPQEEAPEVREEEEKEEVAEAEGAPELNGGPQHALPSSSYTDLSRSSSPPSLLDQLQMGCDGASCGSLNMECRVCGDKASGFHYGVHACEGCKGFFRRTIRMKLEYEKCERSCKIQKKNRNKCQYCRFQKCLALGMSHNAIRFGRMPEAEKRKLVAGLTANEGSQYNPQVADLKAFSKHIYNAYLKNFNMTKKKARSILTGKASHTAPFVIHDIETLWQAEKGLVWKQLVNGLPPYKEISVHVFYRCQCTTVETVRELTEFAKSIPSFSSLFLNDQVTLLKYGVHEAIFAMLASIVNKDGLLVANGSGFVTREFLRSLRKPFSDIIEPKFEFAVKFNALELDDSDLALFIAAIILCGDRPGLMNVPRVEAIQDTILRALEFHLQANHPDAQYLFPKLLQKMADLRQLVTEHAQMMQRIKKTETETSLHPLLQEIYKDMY

[3] = target: T3, Peroxisome proliferator-activated receptor alpha (Homo sapiens) (UniProt Q07869); test: Transactivation of human PPARalpha expressed in African green monkey COS7 cells incubated overnight by dual-glo luciferase reporter assay relative to GW7647; format: cell-based; details: COS-7
T3 sequence (whole entry): T1 sequence (Q07869 whole entry)

[4] = Solubility of the compound in water by microplate reader analysis; format: physicochemical
[5] = target: T4, Bifunctional epoxide hydrolase 2 (Homo sapiens, UniProt P34913); test: Inhibition of human recombinant sEH using PHOME as substrate preincubated for 30 mins followed by substrate addition measured for 30 mins by fluorescence-based assay
T4 sequence (P34913 whole entry): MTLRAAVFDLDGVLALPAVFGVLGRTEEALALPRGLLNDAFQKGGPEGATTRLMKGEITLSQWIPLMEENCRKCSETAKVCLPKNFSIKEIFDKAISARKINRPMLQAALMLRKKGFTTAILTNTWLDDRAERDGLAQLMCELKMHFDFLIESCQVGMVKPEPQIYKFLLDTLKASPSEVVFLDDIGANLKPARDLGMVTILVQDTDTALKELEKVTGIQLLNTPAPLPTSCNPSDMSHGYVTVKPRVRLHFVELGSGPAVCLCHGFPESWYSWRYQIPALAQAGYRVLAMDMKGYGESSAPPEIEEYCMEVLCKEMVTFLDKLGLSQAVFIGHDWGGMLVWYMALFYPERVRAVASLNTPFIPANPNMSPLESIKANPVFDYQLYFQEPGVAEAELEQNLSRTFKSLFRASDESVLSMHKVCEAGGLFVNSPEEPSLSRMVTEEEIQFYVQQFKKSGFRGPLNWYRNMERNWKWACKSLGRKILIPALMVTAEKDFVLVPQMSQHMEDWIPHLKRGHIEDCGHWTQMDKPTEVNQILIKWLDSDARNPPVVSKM

[6] = target: T1, Peroxisome proliferator-activated receptor alpha; details: cos-7
Description: as §1

[7] = target: T5, Peroxisome proliferator-activated receptor gamma (Homo sapiens, UniProt P37231); details: cos-7
T5 sequence (P37231 whole entry): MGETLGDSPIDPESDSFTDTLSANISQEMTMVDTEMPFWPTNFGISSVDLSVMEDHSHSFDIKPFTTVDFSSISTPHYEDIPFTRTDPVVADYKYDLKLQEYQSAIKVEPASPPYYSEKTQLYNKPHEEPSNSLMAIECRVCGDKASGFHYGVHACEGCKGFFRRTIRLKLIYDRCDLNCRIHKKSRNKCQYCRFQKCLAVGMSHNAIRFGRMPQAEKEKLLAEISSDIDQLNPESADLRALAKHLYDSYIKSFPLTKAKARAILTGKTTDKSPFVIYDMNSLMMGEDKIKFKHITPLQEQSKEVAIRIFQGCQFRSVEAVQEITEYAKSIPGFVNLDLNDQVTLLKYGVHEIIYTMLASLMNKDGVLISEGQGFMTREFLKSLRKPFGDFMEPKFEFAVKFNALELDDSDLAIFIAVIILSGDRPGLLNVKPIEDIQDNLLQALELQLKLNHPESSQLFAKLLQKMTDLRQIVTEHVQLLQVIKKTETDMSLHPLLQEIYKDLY
Description: Transactivation of human PPARgamma expressed in African green monkey COS7 cells incubated overnight by dual-glo luciferase reporter gene assay

Mus musculus [8] = test: Tmax in RjOrl:Swiss (CD-1) mouse plasma assessed as 2-Ethyl-3-[4-(N-((2-trifluoromethyl)benzyl)benzamide)]-propionic Acid at 30 mg/kg, po administered as single dose; format: ADME, organism-based; details: in vivo
[9] = target: T6, Peroxisome proliferator-activated receptor delta (Homo sapiens) (UniProt Q03181); test: Transactivation of human PPARdelta expressed in African green monkey COS7 cells at 10 uM incubated overnight by dual-glo luciferase reporter assay; format: cell-based; details: COS-7
T6 sequence (whole entry): T2 sequence (Q03181 whole entry)

Brain = test: Drug uptake in RjOrl:Swiss (CD-1) mouse brain assessed as 2-Ethyl-3-[4-(N-((2-trifluoromethyl)benzyl)benzamide)]-propionic Acid at 30 mg/kg, po administered as single dose; format: ADME, organism-based; details: in vivo
Mus musculus [10] = test: AUC (0 to infinity) in RjOrl:Swiss (CD-1) mouse plasma assessed as 2-Ethyl-3-[4-(N-((2-trifluoromethyl)benzyl)benzamide)]-propionic Acid at 30 mg/kg, po administered as single dose; format: ADME, organism-based; set-up: dose 30 mg/kg, route oral, time infinity; details: in vivo
Mus musculus [11] = test: Drug metabolism in RjOrl:Swiss (CD-1) mouse plasma assessed as 2-Ethyl-3-[4-(N-((2-trifluoromethyl)benzyl)benzamide)]-propionic Acid formation at 30 mg/kg, po administered as single dose; format: ADME, organism-based; details: in vivo
Mus musculus [12] = test: Apparent oral clearance in RjOrl:Swiss (CD-1) mouse plasma assessed as 2-Ethyl-3-[4-(N-((2-trifluoromethyl)benzyl)benzamide)]-propionic Acid at 30 mg/kg administered as single dose; format: ADME, organism-based; details: in vivo
Mus musculus [13] = test: Cmax in RjOrl:Swiss (CD-1) mouse plasma assessed as 2-Ethyl-3-[4-(N-((2-trifluoromethyl)benzyl)benzamide)]-propionic Acid at 30 mg/kg, po administered as single dose; format: ADME, organism-based; set-up: dose 30 mg/kg, route oral; details: in vivo
Mus musculus [14] = test: Apparent volume of distribution during terminal phase in RjOrl:Swiss (CD-1) mouse plasma assessed as 2-Ethyl-3-[4-(N-((2-trifluoromethyl)benzyl)benzamide)]-propionic Acid at 30 mg/kg, po administered as single dose; format: ADME, organism-based; details: in vivo
[15] = target: T7, Peroxisome proliferator-activated receptor gamma (Mus musculus) (UniProt P37238); test: Transactivation of PPARgamma in mouse 3T3L1 cells assessed as increase in FABP4 expression by qPCR method; format: cell-based; details: 3T3-L1
T7 sequence (whole entry): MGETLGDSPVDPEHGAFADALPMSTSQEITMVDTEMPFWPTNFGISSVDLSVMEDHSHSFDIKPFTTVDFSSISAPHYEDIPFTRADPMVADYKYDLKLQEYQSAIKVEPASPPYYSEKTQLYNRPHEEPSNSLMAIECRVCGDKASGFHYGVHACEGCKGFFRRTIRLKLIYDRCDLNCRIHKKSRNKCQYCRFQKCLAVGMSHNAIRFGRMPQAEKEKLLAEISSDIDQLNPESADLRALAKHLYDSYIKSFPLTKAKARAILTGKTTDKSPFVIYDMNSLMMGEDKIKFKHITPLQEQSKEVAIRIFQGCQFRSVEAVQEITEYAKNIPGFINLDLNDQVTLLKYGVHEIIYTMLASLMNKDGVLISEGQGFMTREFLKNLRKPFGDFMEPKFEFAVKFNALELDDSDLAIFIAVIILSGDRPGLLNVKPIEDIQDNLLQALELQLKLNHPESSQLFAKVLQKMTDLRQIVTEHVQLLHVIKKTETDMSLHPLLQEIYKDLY

[16] = target: T7, Peroxisome proliferator-activated receptor gamma (Mus musculus); test: Transactivation of PPARgamma in mouse 3T3L1 cells assessed as increase in LPL expression by qPCR method; format: cell-based; details: 3T3-L1
[17] = target: T8, Peroxisome proliferator-activated receptor gamma (Homo sapiens) (UniProt P37231); test: Transactivation of PPARgamma in human primary preadipocytes assessed as increase in adiponectin expression at 10 uM by qPCR method; format: cell-based
T8 sequence (whole entry): T5 sequence (P37231 whole entry)

[18] = target: T8, Peroxisome proliferator-activated receptor gamma (Homo sapiens); test: Transactivation of PPARgamma in human primary preadipocytes assessed as adipocyte differentiation by Oil Red O staining-based assay; format: cell-based
HepG2 = test: Cytotoxicity against human HepG2 cells assessed as cell viability up to 30 uM after 48 hrs by WST-1 assay; format: cell-based; details: hepg2, 48 h
[19] = target: T8, Peroxisome proliferator-activated receptor gamma (Homo sapiens); test: Transactivation of PPARgamma in human primary preadipocytes assessed as increase in […] expression at 10 uM by qPCR method; format: cell-based
[20] = target: T7, Peroxisome proliferator-activated receptor gamma (Mus musculus); test: Transactivation of PPARgamma in mouse 3T3L1 cells assessed as increase in […] expression by qPCR method; format: cell-based; details: 3T3-L1
[21] = Apparent oral clearance in RjOrl:Swiss (CD-1) mouse plasma at 30 mg/kg; format: ADME, organism-based
Mus musculus [22] = test: Drug level in RjOrl:Swiss (CD-1) mouse plasma treated with Ethyl 2-Ethyl 3-[4-(N-((2-trifluoromethyl)benzyl)benzamide)]propanoate at 30 mg/kg, po administered as single dose; format: ADME, organism-based; details: in vivo
[23] = target: T7, Peroxisome proliferator-activated receptor gamma (Mus musculus); test: Transactivation of PPARgamma in mouse 3T3L1 cells assessed as adipocyte differentiation by Oil Red O staining-based assay; format: cell-based; details: 3T3-L1
[24] = target: T8, Peroxisome proliferator-activated receptor gamma (Homo sapiens); test: Transactivation of PPARgamma in human primary preadipocytes assessed as increase in FABP4 expression at 10 uM by qPCR method; format: cell-based
[25] = target: T7, Peroxisome proliferator-activated receptor gamma (Mus musculus); test: Transactivation of PPARgamma in mouse 3T3L1 cells assessed as increase in adiponectin expression by qPCR method; format: cell-based; details: 3T3-L1
[26] = target: T8, Peroxisome proliferator-activated receptor gamma (Homo sapiens); test: Transactivation of PPARgamma in human primary preadipocytes assessed as increase in LPL expression at 10 uM by qPCR method; format: cell-based

| SMILES | EC50 [1] [µM] | EC50 [2] | Emax [3] | solubility [4] [µM] | IC50 [5] [µM] | EC50 [6] | EC50 [7] | Emax [9] | also measured |
| --- | --- | --- | --- | --- | --- | --- | --- | --- | --- |
| CCOC(=O)C(CC)Cc1ccc(C(=O)NCc2ccc(Oc3ccccc3)cc2)cc1 (stereo unspecified) | 4 | Not Active | 110% | – | – | – | – | – | – |
| CCOC(=O)C(CC)Cc1ccc(C(=O)NCc2ccccc2Br)cc1 (stereo unspecified) | – | Not Active | inactive | 20 (≈ 8.37 µg/mL) | 4 | Not Active | Not Active | – | – |
| CCOC(=O)C(CC)Cc1ccc(C(=O)NCc2ccccc2C(F)(F)F)cc1 (stereo unspecified) | – | Not Active | inactive | 2.5 (≈ 1.02 µg/mL) | – | Not Active | – | inactive | Tmax (Mus musculus [8]): 30 min; Drug uptake (Brain): 30 ng/g; AUC (Mus musculus [10]): 4026 ng·h/mL; Drug metabolism (Mus musculus [11]): metabolite_detected; CL/F (Mus musculus [12]): 125 mL/min/kg; Cmax (Mus musculus [13]): 2000 nM; Vz/F (Mus musculus [14]): 54.3 L/kg |
| CCC(Cc1ccc(C(=O)NCc2ccccc2C(F)(F)F)cc1)C(=O)O (stereo unspecified) | – | Not Active | inactive | 75 (≈ 28.5 µg/mL) | – | Not Active | – | inactive | Activity [15]: Dose-dependent effect; Activity [16]: Dose-dependent effect; Activity [17]: Active; Activity [18]: Dose-dependent effect; Activity (HepG2): Non-toxic; Activity [19]: Active; Activity [20]: Dose-dependent effect; CL/F [21]: 31.7 mL/min/kg; Drug metabolism (Mus musculus [22]): metabolite_detected; Activity [23]: Dose-dependent effect; Activity [24]: Active; Activity [25]: Dose-dependent effect; Activity [26]: Active |
| O=C(NCc1ccccc1C(F)(F)F)c1ccc(-c2nnn[nH]2)cc1 | – | Not Active | inactive | 375 (≈ 130 µg/mL) | – | Not Active | Not Active | inactive | – |
| CON(C)C(=O)/C=C/c1ccc(C(=O)NCc2ccccc2C(F)(F)F)cc1 | – | Not Active | inactive | – | – | Not Active | Not Active | inactive | – |
| CCC(Cc1ccc(C(=O)NCc2ccc(C(F)(F)F)cc2)cc1)C(=O)O (stereo unspecified) | 7 | Not Active | – | – | 7.2 | – | – | – | – |
| CCC(Cc1ccc(C(=O)NCc2ccc(Oc3ccccc3)cc2)cc1)C(=O)O (stereo unspecified) | 0.9 | – | – | – | 12 | – | – | 20% | – |
